From EP0193189A1, “Novel compound, its production and insecticidal and acaricidal composition containing it as an active ingredient” (SUMITOMO CHEMICAL COMPANY, LIMITED, priority 1985, dated 1986) come the findings set out here.

Structures are written as SMILES. Converted amounts (≈) assume the structure as drawn. Read-outs that look alike come from different tables or passages of the source. A value given as a limit tells only on which side of the number the result lay.

In series [1] the test system is tobacco cutworms (Spodoptera litura). Kind of series: Test Example 2: tobacco cutworm larvae on treated artificial feed. In kind it is in vivo. The note with it: Spodoptera litura, 144 h. The source says:
The emulsifiable concentrates of the following present compounds obtained according to Formulation example 2 were each diluted with water to obtain respective 667 times dilution aqueous solutions (corresponding to 150 ppm) containing said compounds, respectively. Two ml of thus diluted solutions were impregnated into the artificial feeds (13 g) for tobacco cutworms (Spodoptera litura) and thus prepared feeds were placed in polyethylene cups of 11 cm in diameter, respectively. Ten of the 4th instar larvae were liberated thereon.
Six days after, the dead and alive of the larvae were examined to calculate the mortality (two replications).

Series [2] deals with rice stem borer (Chilo suppressalis). Kind of series: Test Example 5: rice stem borer larvae on treated artificial feed. In kind it is in vivo. The note with it: read-out: LC50 value (ppm). An excerpt:
The emulsifiable concentrates of the following present compounds and control compounds obtained according to Formulation example 2 were each diluted with water to a prescribed concentration, and one ml each of thus prepared solutions was impregnated into the artificial feeds for rice stem borer (Chilo suppressalis) which had been previously prepared in polyethylene cups of 5.5 cm in diameter, respectively. Ten of the larvae of the 10 days old were liberated thereon. The dead and alive larvae were examined to obtain LC50 value (50% lethal concentration) (two replications).

For series [3], the system named is common mosquito (Culex pipiens pallens). Put plainly: Test Example 1: common mosquito larvae in diluted emulsifiable concentrate, mortality and emergence inhibition. Format: in vivo. The note with it: Culex pipiens; for mortality at 3.5 ppm: 24 h; for pest or weed control at 3.5 ppm: counted when all pupae of no treatment group had emerged, read-out: Inhibitory ratio of emergence. As to the method: The emulsifiable concentrates of the following present compounds obtained according to Formulation example 2 were each diluted with water so as to obtain respective aqueous solutions containing 3.5 ppm of said compounds, respectively. One hundred ml of thus diluted aqueous solutions were poured into respective polyethylene cups of 180 ml volume, and 20 of the last instar larvae of common mosquito (Culex pipiens pallens) were liberated thereto. After one day, the dead or alive of the larvae were examined.
Thereafter, the feed was added to respective cups and the number of emerged pupae of the respective cups was counted when all the pupae of no treatment group had emerged to calculate the inhibitory ratios of the emergence.
The mortality and the inhibitory ratio of the emergence are shown according to the following three criteria: • mortality: A; 90% or more, • B; less than 90% to 10%, • C; less than 10%. • inhibitory: A; 90% or more, ratio of • emergence B; less than 90% to 80% • C; less than 80%.

The test system of series [4] is brown rice planthopper (Nila^parvata luqens). Put plainly: Test Example 4: rice seedling dip test, brown rice planthopper. Format: in vivo. The note with it: 24 h, read-out: LC50 value (ppm). Here is the method:
The emulsifiable concentrates of the-following present compounds and control compounds obtained according to Formulation example 2 were each diluted with water to a prescribed concentration, and the rice seedlings (about 12 cm in length) were dipped for 1 minute in the resulting aqueous dilute solutions. After air-drying, the seedlings were placed in a test tube, and 10 adults of brown rice planthopper (Nila^parvata luqens) were liberated in the tube. After one day, the dead and alive of the adults were examined to obtain LC50 value (50% lethal concentration)(two replications).

The subject of series [5] is resistant strain of green rice leafhopper (Nephotetix cincticeps). Put plainly: Test Example 3: rice seedling dip test, resistant green rice leafhopper. Format: in vivo. The note with it: Nephotettix cincticeps, 24 h, adults of resistant strain, after one day. As to the method:
The emulsifiable concentrates of the following present compounds and control compounds obtained according to Formulation example 2 were each diluted with water to a prescribed concentration, and rice seedlings (about 12 cm in length) were dipped for 1 minute in the resulting aqueous dilute solutions. After air-drying, the seedlings were placed in test tube, and 10 adults of a resistant strain of green rice leafhopper (Nephotetix cincticeps) were liberated in the tube. After one day, the dead and alive of the adults were examined to obtain LC50 (50% lethal concentration)(two replications).

Series [6] relates to houseflies (Musca domestica) of WHO strains. Put plainly: Test Example 6: housefly filter paper and sucrose bait test. Format: in vivo. The note with it: 0.7 ml on filter paper with sucrose bait, adult females, after 48 hours, read-out: LC50 value (ppm). As to the method:
On the bottom of a polyethylene cup of 5.5 cm- in diameter was placed a piece of filter paper of the same size as the bottom, and 0.7 ml of a test solution, prepared by diluting the emulsifiable concentrates of the following present compounds and control compounds prepared according to Formulation example 2 to a prescribed concentration with water, was added dropwise to the filter paper. Thirty milligrams of sucrose were uniformly placed on the filter paper as bait. Thereafter, 10 adult female houseflies (Musca domestica) of WHO strains were liberated in the cup, which was then covered with a lid. After 48 hours, the dead and alive were examined to obtain LC50 value (50% lethal concentration) (two replications).

Series [7] has as its system brown rice planthoppers (Nila^parvata luqens). Put plainly: Test Example 7: spray on potted rice plants, brown rice planthopper, residual effect. In kind it is in vivo. The note with it: 20 h. Here is the method:
The emulsifiable concentrates of the following compounds and control compounds obtained according to Formulation example 2 were each diluted with water one thousand times (corresponding to 100 ppm) and each of thus prepared solutions was sprayed at the rate of 20 ml/2 pots to the rice plant seedlings planted in Wagner pots having a surface area of one ten thousandth are. After air-drying, the treated plants were covered with the iron wire cages, and about 15 adults of brown rice planthoppers (Nila^parvata luqens) were liberated thereto. Further, about 15 adults thereof were also liberated thereto 4 days after the application to examine the residual effects. Twenty hours after each liberation, the dead and alive adults were examined to calculate the mortality.

Series [8] in a line: Test Example 9: fish toxicity test. The note with it: water; young carp; forty-eight hours; 25 ± 1°C; Probit method; read-out: LC50 value (ppm). In kind it is in vivo, Cyprinida carpio. Here is the method: Twenty liters of each of the aqueous solutions containing the prescribed concentrations of the present compounds and comparative control one, and 10 young carp were liberated thereto. Forty-eight hours after, the dead and alive carp were examined to obtain LC50 value, (50% lethal concentration) according to Probit method. All the tests were carried out in thermostatic aquaria whose temperatures were kept at 25 ± 1°C.
Tested fish: young Japanese carp (Cyprinida carpio) Average body length ± S.D.: 2.94 ± 0.19 cm. Average.body weight ± S.D.: 0.65 ± 0.13 g.

The subject of series [9] is carmine spider mite (Tetranychus cinnabarinus). Kind of series: Test Example 8: carmine spider mite on potted kidney bean, degree of damage. In kind it is in vivo. Details: key: -: No damage is observed.; +: Slight damage is observed.; ++: The same damage as in the untreated plot is observed. The note with it: 500 ppm spray 10 ml/pot plus 2 ml soil treatment; after 8 days. Here is the method: The female adults of carmine spider mite (Tetranychus cinnabarinus) were put at a rate of 10 adults/leaf on the leaves of potted kidney bean (at the primordial leaf stage) which had elapsed 7 days after sowing, and placed in a constant-temperature room kept at 25°C. After 6 days, the 200-fold aqueous dilute solutions (corresponding to 500 ppm), prepared from the emulsifiable concentrates of the following present compounds and control compounds prepared according to Formulation example 2, were each sprayed at a rate of 10 ml/pot on a turn table. At the same time, the soil in the pot was treated with 2 ml of each aqueous solution. After 8 days, the degree of damage of the plant by the mite was examined.
Criteria of the effect: • - : No damage is observed. • + : Slight damage is observed. • ++: The same damage as in the untreated plot is observed.

The mark [10] stands for this setting: 150 ppm solution, 2 ml in 13 g artificial feed, 4th instar larvae, six days after, read-out: Mortality (%).
The mark [11] stands for this setting: 1 ml solution in artificial feed, larvae 10 days old.
Setting [12] is: 3.5 ppm, 20 last instar larvae, after one day, read-out: Mortality.
Setting [13] is: rice seedlings dipped 1 minute, adults, after one day.
Where [14] appears, read: rice seedlings dipped 1 minute, read-out: LC50 value (ppm).
The mark [15] stands for this setting: 100 ppm spray, 20 ml/2 pots, residual effect, twenty hours after liberation, read-out: Mortality (%) liberated 4 days after application.
The mark [16] stands for this setting: 100 ppm spray, 20 ml/2 pots, twenty hours after liberation, read-out: Mortality (%) liberated just after air-drying.
Setting [17] is: read-out: LC50 value (ppm), rice seedlings dipped 1 minute.

A word on the mortality: it is the percentage killed. One may read the LC50 as the concentration lethal to half of the exposed cells or organisms. Regarding `C#CC(C)(CCCc1ccc(F)c(Nc2ccccc2)c1)c1ccc(OCC)cc1` (stereo not shown) [(21)], the mortality at 150 ppm in series [1] (setting [10]) is 100%. Besides, the LC50 was 1.5 µg/mL (≈ 3.74 µM) in series [2] (setting [11]), 15 µg/mL (≈ 37.4 µM) in series [4] (setting [13]) and 24 µg/mL (≈ 59.8 µM) in [5] (setting [14]). In addition, the mortality at 3.5 ppm in series [3] (setting [12]) was more than 90%. Further, the pest or weed control at 3.5 ppm in series [3] (3.5 ppm) was more than 90%.
As for `C#CC(C)(CCCc1ccc(F)c(Oc2ccccc2)c1)c1ccc(OCC)cc1` (stereo not shown) [(4)], the mortality at 150 ppm in series [1] (setting [10]) worked out at 100%. Further, the 50% lethal concentration (LC50) in [2] (setting [11]) came to 1.9 µg/mL (≈ 4.72 µM); in [6] it was 18 µg/mL (≈ 44.7 µM); in series [4] (setting [13]), 24 µg/mL (≈ 59.6 µM); in series [5] (setting [14]), 10 µg/mL (≈ 24.8 µM). In addition, the mortality at 3.5 ppm in [3] (setting [12]) was more than 90%. The pest or weed control at 3.5 ppm in series [3] (3.5 ppm) is more than 90%. Further, the mortality at 100 ppm in series [7] (setting [15]) and in series [7] (setting [16]) was 100% each time. Moreover, the LC50 at 48 h in [8] was more than 10 µg/mL.
Regarding `CCOc1ccc(C(C)(C)COCc2cccc(Oc3ccccc3)c2)cc1` [(B), reference compound], the values for the LC50 in series [2] (setting [11]), in series [6] and in [4] (setting [13]) were 7.4 µg/mL (≈ 19.7 µM), 28 µg/mL (≈ 74.4 µM) and 110 µg/mL (≈ 292 µM), respectively. The mortality at 100 ppm in series [7] (setting [15]) worked out at 65%; in series [7] (setting [16]) it was 10%. Moreover, the Degree of damage result in series [9] was “- ~ ++”.
Consider `C#CC(C)(CCCc1ccc(F)c(Oc2ccccc2)n1)c1ccc(OCC)cc1` (stereo not shown) [(20)], for which the mortality at 150 ppm in series [1] (setting [10]) amounted to 100%. The mortality at 3.5 ppm in series [3] (setting [12]) was more than 90%. The pest or weed control at 3.5 ppm in series [3] (3.5 ppm) was more than 90%. Further, the Degree of damage entry in [9] was “- ~ +”. The LC50 in [4] (setting [13]) was determined as 25 µg/mL (≈ 62 µM); in [5] (setting [14]), 74 µg/mL (≈ 183 µM).
For `C#CC(C)(CCCc1cccc(Oc2ccccc2)c1)c1ccc(OCC)cc1` (stereo not shown) [(3), 3-(4-ethoxyphenyl)-3-methyl-6-(3-phenoxyphenyl)-1-hexyne], in series [1], the mortality at 150 ppm was determined as 100%. Moreover, the LC50 was found to be 3.6 µg/mL (≈ 9.36 µM) in [2], 34 µg/mL (≈ 88.4 µM) in series [4] and 18 µg/mL (≈ 46.8 µM) in series [5] (setting [17]). For the same molecule, the mortality at 3.5 ppm in [3] was more than 90%. The pest or weed control at 3.5 ppm in series [3] (3.5 ppm) is more than 90%. The mortality at 100 ppm in series [7] (read-out: Mortality (%) liberated 4 days after application) came out at 95%; in [7] (read-out: Mortality (%) liberated just after air-drying), 100%. For the same molecule, in series [9], the Degree of damage result is “-”. Also, in [8], the LC50 at 48 h was more than 10 µg/mL.
Regarding `CCOC(=O)CC(SP(=S)(OC)OC)C(=O)OCC` (stereo not shown) [(D), Malathion, reference compound], in series [5] (setting [17]), the LC50 is approximately 500 µg/mL (≈ 1510 µM). Besides, the LC50 at 48 h in series [8] was found to be 4.5 µg/mL (≈ 13.6 µM).
